What was measured:
[1] = target: T1, KRAS G12S (Homo sapiens, UniProt P01116, G12S); assay: HTRF assay, KRAS G12S interaction with SOS1; format: biochemical; details: bins <500 nM / 500 nM to 1000 nM, read-out: Inhibition of KRAS G12S (IC50)
T1 construct: made in house; host or cells: E. coli, e.g. BL21 (DE3)
Source text: (§1) This assay can be also used to assess a selective inhibition or reduction of signaling output of a mutant Ras protein relative to a wildtype, or relative to a different mutant Ras protein. For example, the equilibrium interaction of wildtype KRAS or K-Ras mutant (e.g., wildtype or a mutant thereof) with SOS1 (e.g., hSOS1) can be assessed as a proxy or an indication for the ability of a subject compound to bind and inhibit Ras protein. The HTRF assay detects from (i) a fluorescence resonance energy transfer (FRET) donor (e.g., antiGST-Europium) that is bound to GST-tagged K-Ras mutant to (ii) a FRET acceptor (e.g., anti-6His-XL665) bound to a His-tagged hSOSL1.
(§2) The assay buffer can contain ~5 mM HEPES pH 7.4, ~150 mM NaCl, ~1 mM DTT, 0.05% BSA and 0.0025% (v/v) Igepal. A Ras working solution is prepared in an assay buffer containing typically a suitable amount of the protein construct (e.g., GST-tagged K-Ras mutant) and the FRET donor (e.g., antiGST-Eu(K) from Cisbio, France). A SOS1 working solution is prepared in an assay buffer containing suitable amount of the protein construct (e.g., His-hSOS1) and the FRET acceptor (e.g., anti-6His-XL665 from Cisbio, France). A suitable amount of the protein construct will depend on the range of activity or range of IC50 values being detected or under investigation. For detecting an IC50 within a range of 500 nM, the protein constructs of the same range of molarity can be utilized.
(§3) A fixed volume of DMSO with or without test compound is transferred into a 384-well plate. Ras working solution is added to all wells of the test plate. SOS1 working solution is added to all wells except for those that are subsequently filled with inhibitor control solution. Upon incubation for about 10 minutes or longer, the fluorescence is measured with a M1000Pro plate reader (Tecan) using HTRF detection (excitation 337 nm, emission 1: 620 nm, emission 2: 665 nm). Compounds are tested in duplicate at different concentrations (for example, 10 μM, 2.5 μM, 0.63 μM, 0.16 μM, 0.04 μM, 0.01 μM test compound). The ratiometric data (i.e., emission 2 divided by emission 1) is used to calculate IC50 values against Ras using GraphPad Prism (GraphPad software). Signaling output measured in terms of IC50 values can be obtained and a ratio of IC50 against one mutant relative to another mutant can be calculated. For instance, a selective reduction of K-Ras G12S signaling output can be evidenced by a ratio greater than one. In particular, a selective reduction of K-Ras G12S signaling relative to K-Ras WT signaling is evidenced if the ratio of IC50 (against K-Ras WT) to IC50 (against K-Ras G12S) is greater than 1.

[2] = target: T2, KRAS WT (Homo sapiens, UniProt P01116); assay: HTRF assay, wildtype KRAS interaction with SOS1; format: biochemical; details: bins <500 nM / 500 nM to 1000 nM, read-out: Inhibition of KRAS WT (IC50)
T2 construct: made in house; host or cells: E. coli, e.g. BL21 (DE3)
Source text: as §1, §2, §3

[3] = target: T3, KRAS G12D (Homo sapiens, UniProt P01116, G12D); assay: HTRF assay, KRAS G12D interaction with SOS1; format: biochemical; details: bins <500 nM / 500 nM to 1000 nM, read-out: Inhibition of KRAS G12D (IC50)
T3 construct: made in house; host or cells: E. coli, e.g. BL21 (DE3)
Source text: as §1, §2, §3

[4] = target: T4, KRAS G12V (Homo sapiens, UniProt P01116, G12V); assay: HTRF assay, KRAS G12V interaction with SOS1; format: biochemical; details: bins <500 nM / 500 nM to 1000 nM, read-out: Inhibition of KRAS G12V (IC50)
T4 construct: made in house; host or cells: E. coli, e.g. BL21 (DE3)
Source text: as §1, §2, §3

[5] = test system: MiaPaca2 cells; assay: Ras cellular assay, growth of cells with K-Ras G12C mutation; format: cell-based; details: Homo sapiens, MIA PaCa-2; cell proliferation assay; bins ≤500 nM / >500 nM; read-out: Inhibition of MiaPaca2 Cells (IC50)
Procedure: For example, this assay can be also used to assess selective growth inhibition of a mutant Ras protein relative to a wildtype or different mutant Ras protein.
MIA PaCa-2 (ATCC CRL-1420) and NCI-H1792 (ATCC CRL-5895) cell lines comprise a G12C mutation and can be used to assess Ras cellular signaling in vitro, e.g., in response to an inhibitor compound of the present disclosure. […] MIA PaCa-2 culture medium is prepared with DMEM/Ham's F12 (e.g., with stable glutamine, 10% FCS, and 2.5% horse serum. NCI-H1792 culture medium is prepared with RPMI 1640 (e.g., with stable glutamine) and 10% FCS.
On a first day (e.g., Day 1), Softagar (Select Agar, Invitrogen, 3% in ddH2O autoclaved) is boiled and tempered at 48° C. Appropriate culture medium (i.e., medium) is tempered to 37° C. Agar (3%) is diluted 1:5 in medium (=0.6%) and plated into 96 well plates (Corning, #3904), then incubated at room temperature for agar solidification. A 3% agar is diluted to 0.25% in medium (1:12 dilution) and tempered at 42° C. Cells are trypsinized, counted, and tempered at 37° C. The cells (e.g., MIA PaCa-2 at about 125-150 cells, NCI-H1792 at about 1000 cells) are resuspended in […] 0.25% Agar and plated, followed by incubation at room temperature for agar solidification. The wells are overlaid with […] of the medium. Sister wells in a separate plate are plated for time zero determination. All plates are incubated overnight at 37° C. and 5% CO2.
On a second day (e.g., Day 2), time zero values are measured. A […] volume of Cell Titer 96 Aqueous Solution (Promega) is added to each well and incubated in the dark at 37° C. and 5% CO2. Absorption can be measured at 490 nm and reference wavelength 660 nm. DMSO-prediluted test compounds are added to wells of interest, e.g., with HP Dispenser, to one or more desired concentrations (e.g., a final DMSO concentration of 0.3%).
On a tenth day (e.g., Day 10), absorption by wells treated with the test compounds and control wells are measured with, for example, Cell Titer 96 AQueous and analyzed in comparison to the time zero measurements. The IC50 values are determined using the four parameter fit. The resulting IC50 value is a measurement of the ability of the test compound to reduce cell growth of Ras-driven cells (e.g., tumor cell lines) in vitro and/or in vivo.

T2 sequence (P01116 1-188 isoform P01116-2): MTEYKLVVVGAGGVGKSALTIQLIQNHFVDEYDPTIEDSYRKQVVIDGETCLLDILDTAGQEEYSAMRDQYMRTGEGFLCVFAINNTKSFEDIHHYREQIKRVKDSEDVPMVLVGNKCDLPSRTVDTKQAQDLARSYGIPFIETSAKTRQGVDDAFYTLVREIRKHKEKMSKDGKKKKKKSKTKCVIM
T1 sequence (P01116 1-188 isoform P01116-2 G12S): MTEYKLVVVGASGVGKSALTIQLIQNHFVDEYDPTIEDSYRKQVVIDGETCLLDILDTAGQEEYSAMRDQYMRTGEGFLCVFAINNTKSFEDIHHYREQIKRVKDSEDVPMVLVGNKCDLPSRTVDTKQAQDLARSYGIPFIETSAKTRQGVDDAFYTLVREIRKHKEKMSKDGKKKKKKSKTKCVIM
T4 sequence (P01116 1-188 isoform P01116-2 G12V): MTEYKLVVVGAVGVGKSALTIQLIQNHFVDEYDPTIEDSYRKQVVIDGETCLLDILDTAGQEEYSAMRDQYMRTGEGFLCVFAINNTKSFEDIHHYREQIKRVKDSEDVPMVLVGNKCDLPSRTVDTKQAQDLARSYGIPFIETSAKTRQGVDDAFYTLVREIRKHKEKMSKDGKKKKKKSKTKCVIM
T3 sequence (P01116 1-188 isoform P01116-2 G12D): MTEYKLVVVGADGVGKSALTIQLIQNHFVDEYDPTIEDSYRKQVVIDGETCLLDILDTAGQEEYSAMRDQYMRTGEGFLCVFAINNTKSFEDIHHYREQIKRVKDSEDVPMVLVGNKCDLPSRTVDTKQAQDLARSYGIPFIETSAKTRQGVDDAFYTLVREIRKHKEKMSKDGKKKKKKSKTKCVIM

Row | SMILES | IC50 [1] | IC50 [2] | IC50 [3] | IC50 [4] | IC50 [5]
1 | C[C@@H]1[C@H](N(C)c2nc(OC[C@@]34CCCN3C[C@H](F)C4)nc3c(F)c(-c4ccc(F)c5sc(N)c(C#N)c45)c(Cl)cc23)CCN1C(=O)n1ccc(F)n1 [Compound 101, 2-amino-4-(6-chloro-8-fluoro-4-(((2R,3R)-1-(3-fluoro-1H-pyrazole-1-carbonyl)-2-methylpyrrolidin-3-yl)(methyl)amino)-2-(((2R,7aS)-2-fluorotetrahydro-1H-pyrrolizin-7a(5H)-yl)methoxy)quinazolin-7-yl)-7-fluorobenzo[b]thiophene-3-carbonitrile] | < 500 nM | < 500 nM | < 500 nM | < 500 nM | ≤ 500 nM
2 | Cc1nccn1C(=O)N1CC[C@@]12CCN(c1nc(OC[C@@]34CCCN3C[C@H](F)C4)nc3c(F)c(-c4ccc(F)c5sc(N)c(C#N)c45)c(Cl)cc13)C2 [Compound 116, 2-amino-4-(6-chloro-8-fluoro-2-(((2R,7aS)-2-fluorotetrahydro-1H-pyrrolizin-7a(5H)-yl)methoxy)-4-((R)-1-(2-methyl-1H-imidazole-1-carbonyl)-1,6-diazaspiro[3.4]octan-6-yl)quinazolin-7-yl)-7-fluorobenzo[b]thiophene-3-carbonitrile] | < 500 nM | < 500 nM | < 500 nM | < 500 nM | ≤ 500 nM
3 | Cc1cn(C(=O)N2CC[C@@H](N(C)c3nc(OC[C@@]45CCCN4C[C@H](F)C5)nc4c(F)c(-c5ccc(F)c6sc(N)c(C#N)c56)c(Cl)cc34)[C@H]2C)cn1 [Compound 144, 2-amino-4-(6-chloro-8-fluoro-2-(((2R,7aS)-2-fluorotetrahydro-1H-pyrrolizin-7a(5H)-yl)methoxy)-4-(methyl((2R,3R)-2-methyl-1-(4-methyl-1H-imidazole-1-carbonyl)pyrrolidin-3-yl)amino)quinazolin-7-yl)-7-fluorobenzo[b]thiophene-3-carbonitrile] | < 500 nM | < 500 nM | < 500 nM | < 500 nM | ≤ 500 nM
4 | Cc1c(C#N)ncn1C(=O)N1CC[C@@]12CCN(c1nc(OC[C@@]34CCCN3C[C@H](F)C4)nc3c(F)c(-c4ccc(F)c5sc(N)c(C#N)c45)c(Cl)cc13)C2 [Compound 121, 1-((4R)-6-(7-(2-amino-3-cyano-7-fluorobenzo[b]thiophen-4-yl)-6-chloro-8-fluoro-2-(((2R,7aS)-2-fluorotetrahydro-1H-pyrrolizin-7a(5H)-yl)methoxy)quinazolin-4-yl)-1,6-diazaspiro[3.4]octane-1-carbonyl)-5-methyl-1H-imidazole-4-carbonitrile] | < 500 nM | < 500 nM | < 500 nM | < 500 nM | ≤ 500 nM

The next lines start with the values.

Row | IC50 [1] | IC50 [2] | IC50 [3] | IC50 [4] | IC50 [5] | SMILES
5 | < 500 nM | < 500 nM | < 500 nM | < 500 nM | ≤ 500 nM | CCN(c1nc(OC[C@@]23CCCN2C[C@H](F)C3)nc2c(F)c(-c3ccc(F)c4sc(N)c(C#N)c34)c(Cl)cc12)[C@@H]1CCN(C(=O)n2ccnc2Cl)[C@@H]1C [Compound 186, 2-amino-4-(6-chloro-4-(((2R,3R)-1-(2-chloro-1H-imidazole-1-carbonyl)-2-methylpyrrolidin-3-yl)(ethyl)amino)-8-fluoro-2-(((2R,7aS)-2-fluorotetrahydro-1H-pyrrolizin-7a(5H)-yl)methoxy)quinazolin-7-yl)-7-fluorobenzo[b]thiophene-3-carbonitrile]
6 | < 500 nM | < 500 nM | < 500 nM | < 500 nM | ≤ 500 nM | C[C@@H]1[C@H](N(C)c2nc(OC[C@@]34CCCN3C[C@H](F)C4)nc3c(F)c(-c4ccc(F)c5sc(N)c(C#N)c45)c(Cl)cc23)CCN1C(=O)n1ccc(C#N)c1 [Compound 205, 1-((2R,3R)-3-((7-(2-amino-3-cyano-7-fluorobenzo[b]thiophen-4-yl)-6-chloro-8-fluoro-2-(((2R,7aS)-2-fluorotetrahydro-1H-pyrrolizin-7a(5H)-yl)methoxy)quinazolin-4-yl)(methyl)amino)-2-methylpyrrolidine-1-carbonyl)-1H-pyrrole-3-carbonitrile]
7 | < 500 nM | < 500 nM | < 500 nM | < 500 nM | ≤ 500 nM | CCN(c1nc(OC[C@@]23CCCN2C[C@H](F)C3)nc2c(F)c(-c3ccc(F)c4sc(N)c(C#N)c34)c(Cl)cc12)[C@@H]1CCN(C(=O)n2cnc(C#N)c2C)[C@@H]1C [Compound 149, 1-((2R,3R)-3-((7-(2-amino-3-cyano-7-fluorobenzo[b]thiophen-4-yl)-6-chloro-8-fluoro-2-(((2R,7aS)-2-fluorotetrahydro-1H-pyrrolizin-7a(5H)-yl)methoxy)quinazolin-4-yl)(ethyl)amino)-2-methylpyrrolidine-1-carbonyl)-5-methyl-1H-imidazole-4-carbonitrile]
8 | < 500 nM | < 500 nM | < 500 nM | < 500 nM | ≤ 500 nM | CC[C@H]1N(C(=O)n2cnc(C)c2C)C[C@]12CCCCN(c1nc(OC[C@@]34CCCN3C[C@H](F)C4)nc3c(F)c(-c4ccc(F)c5sc(N)c(C#N)c45)c(Cl)cc13)C2 [Compound 215, 2-amino-4-(6-chloro-4-((1R,4R)-2-(4,5-dimethyl-1H-imidazole-1-carbonyl)-1-ethyl-2,6-diazaspiro[3.6]decan-6-yl)-8-fluoro-2-(((2R,7aS)-2-fluorotetrahydro-1H-pyrrolizin-7a(5H)-yl)methoxy)quinazolin-7-yl)-7-fluorobenzo[b]thiophene-3-carbonitrile]
